Earlier results as cited in US20230416219A1, “R-MDMA CRYSTAL FORMS” (Mind Medicine, Inc., priority 2022, published 2023).

Assays:
[1] = target: SERT (Homo sapiens, UniProt P31645)
[2] = system: parkinsonian animal model
[3] = target: DAT (Homo sapiens, UniProt Q01959)
[4] = in vivo
[5] = target: 5-HT2A receptors (Homo sapiens, UniProt P28223)
Sequence of 5-HT2A receptors (P28223 whole entry): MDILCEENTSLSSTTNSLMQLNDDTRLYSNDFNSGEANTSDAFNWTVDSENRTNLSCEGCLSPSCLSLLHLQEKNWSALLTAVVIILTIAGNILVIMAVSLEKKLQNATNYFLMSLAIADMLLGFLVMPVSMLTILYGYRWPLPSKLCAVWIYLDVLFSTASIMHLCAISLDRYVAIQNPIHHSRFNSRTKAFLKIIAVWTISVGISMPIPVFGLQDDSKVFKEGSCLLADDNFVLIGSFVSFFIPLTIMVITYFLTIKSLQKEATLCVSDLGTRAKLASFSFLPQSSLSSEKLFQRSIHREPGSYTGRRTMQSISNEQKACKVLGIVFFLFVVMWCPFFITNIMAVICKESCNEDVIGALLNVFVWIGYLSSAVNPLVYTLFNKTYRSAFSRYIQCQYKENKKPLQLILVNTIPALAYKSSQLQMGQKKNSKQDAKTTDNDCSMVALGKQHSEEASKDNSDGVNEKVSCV

Sequence of SERT (P31645 whole entry, species assumed): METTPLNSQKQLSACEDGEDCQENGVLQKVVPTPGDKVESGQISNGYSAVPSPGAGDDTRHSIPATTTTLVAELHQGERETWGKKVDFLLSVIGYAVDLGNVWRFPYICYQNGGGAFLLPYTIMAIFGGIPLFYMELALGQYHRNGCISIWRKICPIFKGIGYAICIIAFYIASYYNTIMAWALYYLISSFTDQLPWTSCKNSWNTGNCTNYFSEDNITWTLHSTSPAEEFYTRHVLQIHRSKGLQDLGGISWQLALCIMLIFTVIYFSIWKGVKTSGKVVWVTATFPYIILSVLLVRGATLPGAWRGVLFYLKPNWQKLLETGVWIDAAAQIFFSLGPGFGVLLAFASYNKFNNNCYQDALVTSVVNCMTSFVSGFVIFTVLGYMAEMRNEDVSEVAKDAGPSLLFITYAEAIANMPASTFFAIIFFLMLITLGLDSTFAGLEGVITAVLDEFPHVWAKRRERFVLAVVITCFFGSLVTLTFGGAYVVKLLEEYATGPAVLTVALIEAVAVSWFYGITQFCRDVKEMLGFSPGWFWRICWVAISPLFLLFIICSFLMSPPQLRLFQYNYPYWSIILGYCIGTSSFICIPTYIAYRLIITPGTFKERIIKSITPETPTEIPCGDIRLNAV
Sequence of DAT (Q01959 whole entry, species assumed): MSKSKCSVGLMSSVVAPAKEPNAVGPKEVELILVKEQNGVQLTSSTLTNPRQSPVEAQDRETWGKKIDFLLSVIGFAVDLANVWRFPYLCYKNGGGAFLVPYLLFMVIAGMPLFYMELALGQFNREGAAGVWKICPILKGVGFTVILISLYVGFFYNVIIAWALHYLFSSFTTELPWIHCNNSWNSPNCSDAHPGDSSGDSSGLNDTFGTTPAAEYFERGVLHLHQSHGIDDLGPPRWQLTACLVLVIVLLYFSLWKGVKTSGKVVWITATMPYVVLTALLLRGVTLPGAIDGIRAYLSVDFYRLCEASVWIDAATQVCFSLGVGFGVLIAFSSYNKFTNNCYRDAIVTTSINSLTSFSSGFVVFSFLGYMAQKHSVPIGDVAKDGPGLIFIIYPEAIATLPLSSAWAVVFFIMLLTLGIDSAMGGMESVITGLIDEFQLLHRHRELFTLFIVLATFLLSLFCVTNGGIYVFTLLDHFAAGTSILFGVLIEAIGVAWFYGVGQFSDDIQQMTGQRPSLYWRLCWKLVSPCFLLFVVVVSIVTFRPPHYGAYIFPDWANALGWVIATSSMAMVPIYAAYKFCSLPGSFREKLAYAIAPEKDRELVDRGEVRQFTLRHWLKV

In the case of `CN[C@@H](C)Cc1ccc2c(c1)OCO2` [S-MDMA], the “affinity for SERT” value [1] is given as “high affinity”, the “severity of peak-dose dyskinesia” value [2] is given as “exacerbated” and the “total duration of ON-time” value [2] is given as “extended”. For the same compound, the “affinity for DAT” value [3] was “moderate affinity”.
For `CN[C@H](C)Cc1ccc2c(c1)OCO2` [R-MDMA], the hyperthermia [4] is given as “does not produce hyperthermia”, the “selectivity for 5-HT2A receptors” value [5] is given as “selective compound for 5-HT2A receptors” and the “duration of good ON-time” value [2] is given as “increased”. For the same compound, the “severity of peak-dose dyskinesia” value [2] was “decreased”.
